Test results from patent US9951058B2, “Compound, pharmaceutically acceptable salt or optical isomer thereof, method for preparing the same, and pharmaceutical composition for prevention or treatment of viral diseases containing same as active ingredient” (Korea Research Institute of Chemical Technology, priority 2012, dated 2018).
Values after ≈ are worked out from the molar mass of the structure shown. Where two headings read alike, the source gives them in different places.

Tests used:
[1] = test system: coxsackievirus B3 (Cox B3); experiment: Multicycle cytopathic effect (CPE) reduction assay; assay type: cell-based; conditions: for EC50 CoxB3: 100 CCID50, MTS, 37° C., 3 days; for EC50: Enterovirus B, B3, 72 h, read-out: EC50 CoxB3
[2] = test system: HeLa (human cervical cancer cells); experiment: Cytotoxicity (CC50) in mock-infected cells, CPE inhibition assay, MTT; conditions: Table 3; mock-infected cells, MTT assay, 2-3 days
HRV 14 = experiment: Cytopathic effect (CPE) inhibition assay; assay type: cell-based, human rhinovirus; conditions: for EC50: Human rhinovirus sp., HeLa, 72 h, read-out: EC50 HRV 14
[3] = test system: coxsackievirus B1 (Cox B1); experiment: Multicycle cytopathic effect (CPE) reduction assay; assay type: cell-based; conditions: for EC50 CoxB1: 100 CCID50, MTS, 37° C., 3 days; for EC50: Enterovirus B, B1, 72 h, read-out: EC50 CoxB1
HeLa = experiment: Cytotoxicity (CC50) in multicycle CPE reduction assay, MTS; conditions: Table 4; MTS, 37° C., 3 days
poliovirus 3 (PV3) = experiment: microbe, parasite or virus in culture; assay type: cell-based; conditions: for EC50 PV3: 100 CCID50, MTS, 37° C., 3 days; for EC50: Enterovirus C, 72 h, read-out: EC50 PV3
HRV 21 = experiment: Cytopathic effect (CPE) inhibition assay; assay type: cell-based, human rhinovirus; conditions: for EC50: Human rhinovirus sp., 72 h, read-out: EC50 HRV 21
HRV 71 = experiment: Cytopathic effect (CPE) inhibition assay; assay type: cell-based, human rhinovirus; conditions: for EC50: Human rhinovirus sp., 72 h, read-out: EC50 HRV 71
[4] = test system: 48 rhinovirus types and coxsackievirus A21, B3, enterovirus 70 and echovirus 11; conditions: Pattick et al. 1999; cited from earlier work
[5] = test system: HeLa (human cervical cancer cells)
[6] = in vivo, cited from earlier work
[7] = test system: rhinoviruses and enteroviruses; conditions: cited from earlier work
[8] = Cytotoxicity (CC50) in mock-infected cells, CPE inhibition assay, MTT; conditions: human
[9] = Cytotoxicity (CC50) in multicycle CPE reduction assay, MTS; conditions: human
[10] = cited from earlier work; for therapeutic effect: clinical
in vitro = conditions: human
[11] = host cell HeLa, 3 days, MEM/2% FBS, MTT assay

In the case of “N-(4b-hydroxy-7-isopropyl-4-nitro-10-oxo-4b, 10-dihydro-9bH-indeno[1,2-b]benzofuran-9b-yl)-2-oxo-4-phenyl butanamide [Example 59]”, the “EC50 CoxB3” value [1] is reported as less than 0.1 µg/mL, the “CC50 Cytotoxicity” value [2] is reported as 8.6 µg/mL and the “EC50 HRV 14” value (HRV 14; [11]) is reported as less than 0.1 µg/mL. The “EC50 CoxB1” value [3] was less than 0.1 µg/mL, the “CC50 Cytotoxicity” value (HeLa) was greater than 10.0 µg/mL and the “EC50 PV3” value (poliovirus 3 (PV3)) was less than 0.1 µg/mL. For the same compound, the “EC50 HRV 21” value (HRV 21; [11]) was greater than 8.6 µg/mL and the “EC50 HRV 71” value (HRV 71; [11]) was greater than 8.6 µg/mL.

For “N-(1-amino-4b-hydroxy-7-isopropyl-10-oxo-4b, 10-dihydro-9bH-indeno[1,2-b]benzofuran-9b-yl)-2-oxo hexanamide [Example 50]”, the “EC50 CoxB3” value [1] was less than 0.1 µg/mL, the “CC50 Cytotoxicity” value [2] was greater than 10.0 µg/mL and the “EC50 HRV 14” value (HRV 14; [11]) was less than 0.1 µg/mL. For the same compound, the “EC50 CoxB1” value [3] was less than 0.1 µg/mL, the “CC50 Cytotoxicity” value (HeLa) was greater than 10.0 µg/mL and the “EC50 PV3” value (poliovirus 3 (PV3)) was less than 1.0 µg/mL. For the same compound, the “EC50 HRV 21” value (HRV 21; [11]) was greater than 10.0 µg/mL and the “EC50 HRV 71” value (HRV 71; [11]) was greater than 10.0 µg/mL.

For `CCOC(=O)/C=C/[C@H](C[C@@H]1CCNC1=O)NC(=O)[C@@H](CC(=O)[C@@H](NC(=O)c1cc(C)on1)C(C)C)Cc1ccc(F)cc1` [AG 7088], the “concentration range of effect in the cell culture” value [4] is listed as “nanomolar concentration range”.

For `CC(C)c1ccc2c(c1)OC1(O)c3ccccc3C(=O)C21NC(=O)CCC(=O)O` (stereo not shown) [Example 57, 4-((4b-hydroxy-7-isopropyl-10-oxo-4b, 10-dihydro-9bH-indeno[1,2-b]benzofuran-9b-yl)amino)-4-oxo butanoic acid], the “EC50 CoxB3” value [1] was less than 1.0 µg/mL, the “EC50 HRV 14” value (HRV 14; [11]) was less than 10.0 µg/mL and the “EC50 CoxB1” value [3] was less than 1.0 µg/mL. For the same compound, the “CC50 Cytotoxicity” value (HeLa) was greater than 10.0 µg/mL, the “EC50 PV3” value (poliovirus 3 (PV3)) was greater than 10.0 µg/mL and the “EC50 HRV 21” value (HRV 21; [11]) was greater than 10.0 µg/mL. For the same compound, the “EC50 HRV 71” value (HRV 71; [11]) was greater than 10.0 µg/mL and the “CC50 Cytotoxicity” value [5] was greater than 10.0 µg/mL.

For `Cc1cc(CCCCCCCOc2ccc(C3=NCCO3)cc2)on1` [disoxaril], the bioavailability [6] is given as “low bioavailability”, the metabolization and excretion [6] is given as “rapid metabolization and excretion” and the “antiviral effects in the cell culture” value [7] is given as “very good antiviral effects”.

For `CC(C)c1ccc2c(c1)OC1(O)c3c(cccc3[N+](=O)[O-])C(=O)C21NC(=O)C(=O)Cc1ccccc1[N+](=O)[O-]` (stereo not shown) [Example 25, N-(4b-hydroxy-7-isopropyl-4-nitro-10-oxo-4b, 10-dihydro-9bH-indeno[1,2-b]benzofuran-9b-yl)-3-(2-nitrophenyl)-2-oxo propanamide], the EC50 [1] was less than 1 µg/mL, the CC50 [8] was 2.6 µg/mL (≈ 4.89 µM) and the EC50 (HRV 14) was greater than 2.6 µg/mL. The EC50 [3] was less than 1 µg/mL, the CC50 at 3 days [9] was 9.5 µg/mL (≈ 17.9 µM) and the EC50 (poliovirus 3 (PV3)) was greater than 9.5 µg/mL. The EC50 (HRV 21; HeLa) was greater than 2.6 µg/mL and the EC50 (HRV 71; HeLa) was greater than 2.6 µg/mL.

For `CC(C)S(=O)(=O)n1c(N)nc2ccc(/C(=N/O)c3ccccc3)cc21` [Enviroxime], the therapeutic effect [10] is given as “few or no therapeutic effects”, the pharmacokinetics ([10]; in vivo) is given as “insufficient pharmacokinetics” and the side effects ([10]; in vivo) is given as “unwanted side effects”.

For `Cc1cc(CCCOc2c(C)cc(-c3noc(C(F)(F)F)n3)cc2C)on1` [Pleconaril], the therapeutic effect [10] is listed as “therapy success was too low”, the side effects ([10]; in vivo) is listed as “side effects were observed” and the oral bioavailability ([6]; po) is listed as “very good oral bioavailability”.

In the case of `CCOC(=O)c1ccc(OCCC2CCN(c3ccc(C)nn3)CC2)cc1` [pirodavir], the “antiviral effects in the cell culture” value [7] is listed as “very good antiviral effects”.

`CCOC(=O)C(=O)NC12C(=O)c3cccc([N+](=O)[O-])c3C1(O)Oc1cc(C(C)C)ccc12` (stereo not shown) [Example 33, Ethyl 2-((4b-hydroxy-7-isopropyl-4-nitro-10-oxo-4b, 10-dihydro-9bH-indeno[1,2-b]benzofuran-9b-yl)amino)-2-oxo acetate] gave an EC50 [1] of less than 10 µg/mL, an EC50 (HRV 14; [11]) greater than 10 µg/mL and an EC50 [3] of less than 10 µg/mL. For the same compound, the CC50 at 3 days [9] was greater than 10 µg/mL, the CC50 (in vitro) was greater than 10 µg/mL and the EC50 (poliovirus 3 (PV3)) was greater than 10 µg/mL. For the same compound, the EC50 (HRV 21; [11]) was greater than 10 µg/mL and the EC50 (HRV 71; [11]) was greater than 10 µg/mL.

Compound `CC(C)c1ccc2c(c1)OC1(O)c3ccccc3C(=O)C21N/C(=N\C(=O)OC(C)(C)C)NC(=O)OC(C)(C)C` (stereo not shown) [Example 55] has an EC50 [1] of less than 1 µg/mL, an EC50 (HRV 14; [11]) of less than 10 µg/mL and an EC50 [3] of less than 1 µg/mL. The CC50 at 3 days [9] was greater than 10 µg/mL, the CC50 (in vitro) was greater than 10 µg/mL and the EC50 (poliovirus 3 (PV3)) was greater than 10 µg/mL. The EC50 (HRV 21; [11]) was greater than 10 µg/mL and the EC50 (HRV 71; [11]) was greater than 10 µg/mL.

In the case of `Cc1cc(CCCCCOc2c(Cl)cc(C3=NCCO3)cc2Cl)on1` [WIN 54954], the side effects ([10]; in vivo) is given as “skin rash” and the metabolization and excretion [6] is given as “rapid metabolization and excretion”.

In the case of `Cc1cccc(C)c1NC(=O)C(=O)NC12C(=O)c3cccc([N+](=O)[O-])c3C1(O)Oc1cc(C(C)C)ccc12` (stereo not shown) [Example 26, N1-(2,6-dimethylphenyl)-N2-(4b-hydroxy-7-isopropyl-4-nitro-10-oxo-4b, 10-dihydro-9bH-indeno[1,2-b]benzofuran-9b-yl)oxal amide], the EC50 [1] is reported as less than 10 µg/mL, the EC50 (HRV 14; [11]) is reported as less than 10 µg/mL and the EC50 [3] is reported as less than 10 µg/mL. The CC50 at 3 days [9] was greater than 10 µg/mL, the CC50 (in vitro) was greater than 10 µg/mL and the EC50 (poliovirus 3 (PV3)) was greater than 10 µg/mL. The EC50 (HRV 21; [11]) was greater than 10 µg/mL and the EC50 (HRV 71; [11]) was greater than 10 µg/mL.

Work on `CCC(C)C(=O)C(=O)NC12C(=O)c3c(N)cccc3C1(O)Oc1cc(C(C)C)ccc12` (stereo not shown) [Example 40, N-(1-amino-4b-hydroxy-7-isopropyl-10-oxo-4b, 10-dihydro-9bH-indeno[1,2-b]benzofuran-9b-yl)-3-methyl-2-oxo pentanamide] yielded an EC50 [1] of less than 0.01 µg/mL, an EC50 (HRV 14; [11]) of less than 0.1 µg/mL and an EC50 [3] of less than 0.01 µg/mL. The CC50 at 3 days [9] was greater than 10 µg/mL, the CC50 (in vitro) was greater than 10 µg/mL and the EC50 (poliovirus 3 (PV3)) was less than 0.1 µg/mL. It also gave an EC50 (HRV 21; [11]) greater than 10 µg/mL and an EC50 (HRV 71; [11]) greater than 10 µg/mL.

For `CCC(=O)C(CCCCCCOc1ccc(OC)cc1Cl)C(=O)CC` [arildone], the bioavailability [6] is given as “low bioavailability” and the “antiviral effects in the cell culture” value [7] is given as “very good antiviral effects”.
